From patent publication US10047086B2, “Imidazopyridines and imidazopyrazines as LSD1 inhibitors” (Incyte Corporation, priority 2014, dated 2018)

Biological target: LSD-1 enzyme (Homo sapiens (Human), UniProt O60341)
Assay: LANCE LSD1/KDM1A demethylase assay (LSD1 histone demethylase biochemical assay)
Conditions: 1 nM LSD-1 enzyme, 1 hour preincubation at 25° C., 0.4 μM Biotin-labeled Histone H3 peptide substrate

Cc1nc2cc(-c3c(-c4ccc(C#N)cc4)cc(OC[C@@H]4CCCN(C)C4)c4cncn34)ccc2n1C [Example 153, 4-(5-(1,2-dimethyl-1H-benzimidazol-5-yl)-8-{[(3R)-1-methylpiperidin-3-yl]methoxy}imidazo[1,5-a]pyridin-6-yl)benzonitrile]
IC50: ≤ 50 nM
